Results from ChEMBL document CHEMBL1201862, “PubChem BioAssay data set” (2004).
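Step 1: Grow cells in 96-well plates. Step 2: Expose to compound for 48 hours at 5 concentrations. Step 3: Interpolate endpoints linearly; if unreached, use highest concentration. GI50 = concentration required for 50% inhibition of growth.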 Active and inactive are the calls of the source. No stated cut-off is given here; in the data, active = GI50 up to about 1.1 µM and inactive = higher.

Columns and labels:
Test in all cases: DTP human tumour cell line panel, 48 h
MDA-MB-231 = test system: MDA-MB-231
M14 = test system: M14
SK-MEL-5 = test system: SK-MEL-5
SK-MEL-2 = test system: SK-MEL-2
OVCAR-3 = test system: OVCAR-3
KM12 = test system: KM12
OVCAR-8 = test system: OVCAR-8
Malme-3M = test system: Malme-3M
DU-145 = test system: DU-145
LOX IMVI = test system: LOX IMVI
EKVX = test system: EKVX
SK-OV-3 = test system: SK-OV-3
HCC 2998 = test system: HCC 2998
BT-549 = test system: BT-549
UACC-257 = test system: UACC-257
OVCAR-4 = test system: OVCAR-4
ACHN = test system: ACHN
CCRF-CEM = test system: CCRF-CEM
RXF 393 = test system: RXF 393
HL-60 = test system: HL-60

Measured: GI50

Cc1ccc(S(=O)(=O)c2ccsc2NC(=O)C(F)(F)F)cc1
inactive: MDA-MB-231 24.5 µM | M14 43.4 µM | SK-MEL-5 20.2 µM | SK-MEL-2 26.3 µM | OVCAR-3 42.6 µM | KM12 31.1 µM | OVCAR-8 31.8 µM | Malme-3M 40.7 µM | DU-145 42.6 µM | LOX IMVI 28.2 µM | EKVX 46.6 µM | SK-OV-3 36.8 µM | HCC 2998 29 µM | BT-549 40.3 µM | UACC-257 30.3 µM | OVCAR-4 20.6 µM | ACHN 39.2 µM

CC1OC(OC2C(O)COC(OC3C(C)OC(OC4C(OC(=O)[C@]56CCC(C)(C)C[C@@H]5C5=CCC7[C@@]8(C)C[C@H](O)[C@H](OC9OC(CO)C(O)C(O)C9O)[C@@](C)(CO)[C@@H]8CC[C@@]7(C)[C@]5(C)CC6)OCC(O)C4O)C(O)C3O)C2O)C(O)C(O)C1O (some centres not stated)
inactive: MDA-MB-231 19.8 µM | M14 22.8 µM | SK-MEL-5 20.4 µM | OVCAR-3 18.1 µM | CCRF-CEM 20.6 µM | KM12 35.5 µM | OVCAR-8 18.8 µM | Malme-3M 33.4 µM | DU-145 19.1 µM | LOX IMVI 21.3 µM | EKVX 16.5 µM | SK-OV-3 19.8 µM | HCC 2998 18.5 µM | BT-549 24.1 µM | UACC-257 17.5 µM | OVCAR-4 20.8 µM | ACHN 21.2 µM | RXF 393 15.6 µM

O=C(N/N=C/c1ccc(Cl)cc1)c1ccccc1Nc1ccccc1C(=O)N/N=C/c1ccc(Cl)cc1
inactive: MDA-MB-231 91.6 µM | M14 33 µM | SK-MEL-5 > 100 µM | SK-MEL-2 > 100 µM | OVCAR-3 > 100 µM | CCRF-CEM > 100 µM | KM12 > 100 µM | OVCAR-8 > 100 µM | Malme-3M 64.4 µM | DU-145 > 100 µM | LOX IMVI > 100 µM | EKVX > 100 µM | SK-OV-3 > 100 µM | HCC 2998 > 100 µM | BT-549 > 100 µM | UACC-257 > 100 µM | OVCAR-4 > 100 µM | ACHN > 100 µM | RXF 393 > 100 µM

CN(C)C(=O)C(F)(F)C(c1ccc(C(F)(F)F)cc1)C1C(=O)N(C)C(=O)N(C)C1=O (configuration not stated)
inactive: MDA-MB-231 > 100 µM | M14 > 100 µM | SK-MEL-5 > 100 µM | SK-MEL-2 > 100 µM | OVCAR-3 > 100 µM | CCRF-CEM > 100 µM | KM12 > 100 µM | DU-145 > 100 µM | LOX IMVI > 100 µM | EKVX > 100 µM | SK-OV-3 > 100 µM | HCC 2998 > 100 µM | BT-549 > 100 µM | UACC-257 > 100 µM | OVCAR-4 > 100 µM | ACHN > 100 µM | RXF 393 78.3 µM

N#Cc1nc(CSCc2ccccc2)oc1N
inactive: MDA-MB-231 > 100 µM | M14 > 100 µM | SK-MEL-2 > 100 µM | OVCAR-3 > 100 µM | CCRF-CEM 19.8 µM | KM12 > 100 µM | OVCAR-8 > 100 µM | Malme-3M 1.35 µM | DU-145 > 100 µM | SK-OV-3 > 100 µM | HCC 2998 > 100 µM | BT-549 > 100 µM | UACC-257 > 100 µM | OVCAR-4 > 100 µM | ACHN > 100 µM | RXF 393 > 100 µM

Cc1ncc(COP(=O)(O)O)c(C)c1O
inactive: MDA-MB-231 > 100 µM | M14 > 100 µM | SK-MEL-5 > 100 µM | SK-MEL-2 > 100 µM | OVCAR-3 > 100 µM | KM12 > 100 µM | OVCAR-8 > 100 µM | Malme-3M > 100 µM | LOX IMVI > 100 µM | EKVX > 100 µM | BT-549 > 100 µM | UACC-257 > 100 µM | OVCAR-4 > 100 µM | HL-60 > 100 µM | ACHN > 100 µM | RXF 393 > 100 µM

CCCC(=O)Nc1ccc2c(c1)CN1C(=O)c3ccccc3C1=N2
inactive: MDA-MB-231 > 100 µM | M14 > 100 µM | SK-MEL-5 > 100 µM | SK-MEL-2 > 100 µM | OVCAR-3 > 100 µM | KM12 > 100 µM | OVCAR-8 > 100 µM | Malme-3M > 100 µM | DU-145 > 100 µM | LOX IMVI > 100 µM | SK-OV-3 > 100 µM | HCC 2998 > 100 µM | BT-549 > 100 µM | UACC-257 > 100 µM | OVCAR-4 > 100 µM | HL-60 > 100 µM | ACHN > 100 µM

CCCCCCCC(CC(=O)O)OC(=O)CC(CCCCCCC)OC1OC(C)C(O)C(O)C1OC1OC(C)C(O)C(O)C1O (configuration not stated)
inactive: MDA-MB-231 > 100 µM | M14 > 100 µM | SK-MEL-5 > 100 µM | SK-MEL-2 > 100 µM | OVCAR-3 > 100 µM | CCRF-CEM 79.4 µM | KM12 > 100 µM | OVCAR-8 > 100 µM | Malme-3M 43.2 µM | DU-145 > 100 µM | LOX IMVI > 100 µM | EKVX > 100 µM | SK-OV-3 > 100 µM | HCC 2998 > 100 µM | BT-549 > 100 µM | UACC-257 > 100 µM | ACHN > 100 µM

COc1cc(-c2c[nH]c3ccccc23)nc(-c2c[nH]c3ccccc23)n1
inactive: MDA-MB-231 2.49 µM | M14 4.07 µM | SK-MEL-5 5 µM | SK-MEL-2 4.94 µM | OVCAR-3 6.71 µM | CCRF-CEM 1.13 µM | KM12 4.18 µM | OVCAR-8 4.97 µM | DU-145 11.3 µM | LOX IMVI 4.84 µM | EKVX 5.56 µM | SK-OV-3 10.9 µM | HCC 2998 4.22 µM | BT-549 15.9 µM | UACC-257 8.91 µM | OVCAR-4 8.81 µM | HL-60 3.43 µM | ACHN 2.61 µM

C/C(=C\c1ccccc1)C(=O)NCc1ccc(C(=O)NCCC(C)C)cc1
inactive: MDA-MB-231 85.3 µM | M14 > 100 µM | SK-MEL-5 > 100 µM | SK-MEL-2 > 100 µM | OVCAR-3 > 100 µM | CCRF-CEM > 100 µM | KM12 > 100 µM | OVCAR-8 37.2 µM | Malme-3M > 100 µM | DU-145 > 100 µM | LOX IMVI > 100 µM | EKVX 76.4 µM | SK-OV-3 25.2 µM | HCC 2998 > 100 µM | BT-549 33.8 µM | UACC-257 > 100 µM | OVCAR-4 > 100 µM | ACHN 55.6 µM | RXF 393 20.8 µM

O=C1C(NCCc2cc(Cl)c(O)c(Cl)c2)=CC(=O)c2[nH]cnc21
inactive: MDA-MB-231 31 µM | M14 10.7 µM | SK-MEL-5 17.3 µM | SK-MEL-2 19.2 µM | OVCAR-3 17.7 µM | KM12 35.5 µM | OVCAR-8 32.2 µM | Malme-3M 4.57 µM | LOX IMVI 35.2 µM | EKVX 32.1 µM | HCC 2998 38.8 µM | BT-549 33.7 µM | UACC-257 26 µM | HL-60 17.4 µM | ACHN 47 µM

CCC(C)C1(O)OC2CC3(C)OC(=CC3=O)/C(C)=C\C3OC(=O)C1(C)C32 (configuration not stated)
inactive: MDA-MB-231 19.1 µM | M14 21.1 µM | SK-MEL-5 10.5 µM | SK-MEL-2 21.3 µM | OVCAR-3 10.4 µM | CCRF-CEM 4.83 µM | KM12 10.6 µM | OVCAR-8 16 µM | DU-145 4.68 µM | LOX IMVI 14.7 µM | EKVX 12.7 µM | SK-OV-3 37.6 µM | HCC 2998 15.2 µM | BT-549 3.57 µM | UACC-257 7.01 µM | OVCAR-4 42.5 µM | HL-60 3.12 µM | ACHN 9.14 µM

Nc1nc(Cl)cc(Nc2ccc3c(c2)CCC3)n1
inactive: MDA-MB-231 52 µM | M14 > 100 µM | SK-MEL-5 91.4 µM | SK-MEL-2 > 100 µM | OVCAR-3 > 100 µM | CCRF-CEM 44.3 µM | KM12 36.1 µM | OVCAR-8 80.9 µM | Malme-3M > 100 µM | DU-145 > 100 µM | LOX IMVI 56.5 µM | EKVX 32.1 µM | SK-OV-3 > 100 µM | HCC 2998 65 µM | BT-549 > 100 µM | UACC-257 > 100 µM | OVCAR-4 > 100 µM | HL-60 37.2 µM | ACHN > 100 µM

O=C1c2ccccc2-n2c1nc1ccc(Cl)cc1c2=O
inactive: MDA-MB-231 62.1 µM | M14 > 100 µM | SK-MEL-5 > 100 µM | SK-MEL-2 89.9 µM | OVCAR-3 > 100 µM | CCRF-CEM 3.2 µM | KM12 > 100 µM | OVCAR-8 35.2 µM | DU-145 > 100 µM | LOX IMVI > 100 µM | EKVX 92 µM | SK-OV-3 > 100 µM | HCC 2998 > 100 µM | BT-549 > 100 µM | UACC-257 42.1 µM | OVCAR-4 > 100 µM | ACHN > 100 µM | RXF 393 3.48 µM

CC1=CC(=O)/C(=C/NC(=O)NN)C(=O)O1
inactive: MDA-MB-231 > 100 µM | M14 > 100 µM | SK-MEL-5 > 100 µM | SK-MEL-2 > 100 µM | OVCAR-3 > 100 µM | CCRF-CEM > 100 µM | KM12 > 100 µM | OVCAR-8 > 100 µM | DU-145 > 100 µM | LOX IMVI > 100 µM | EKVX 34.1 µM | SK-OV-3 > 100 µM | HCC 2998 > 100 µM | BT-549 > 100 µM | UACC-257 > 100 µM | OVCAR-4 > 100 µM | ACHN > 100 µM | RXF 393 > 100 µM
